*1 amine or outer side, *2 acyl side, *3 side chain or, on linkers, in order; H or OH if unused. Where a SMILES comes first, the peptide text is derived from it. Bridges are numbered along the chain shown (N, C = ends). [ ]: non-standard residue; d: D form. The star is where a group is joined. X48 = CN(C)C[C@H]1CN(c2ccc(-c3ccc(Cl)cc3C[C@@H](C(=O)[*:2])N(C)[*:1])cc2)CCO1; NMePhe(2-(4-MorPh),5-Cl) = CN[C@@H](Cc1cc(Cl)ccc1-c1ccc(N2CCOCC2)cc1)C(=O)O; X70 = CN1CCC[C@@H](c2ccc(-c3ccc(Cl)cc3C[C@@H](C(=O)[*:2])N(C)[*:1])cc2)C1; X1 = C[C@H]1CN(c2ccc(-c3ccc(Cl)cc3C[C@@H](C(=O)[*:2])N(C)[*:1])cc2)CCN1C; X23 = CCN([C@@H](Cc1cc(Cl)ccc1-c1ccc(N2CCN(C)CC2)cc1)C(=O)[*:2])[*:1]; X59 = CC(c1ccc(-c2ccc(Cl)cc2C[C@@H](C(=O)[*:2])N(C)[*:1])cc1)N1CCOCC1; X32 = CN([C@@H](Cc1cc(Cl)ccc1-c1ccc(N2CCOCC2=O)cc1)C(=O)[*:2])[*:1]; X49 = CN1CCc2ccc(-c3ccc(Cl)cc3C[C@@H](C(=O)[*:2])N(C)[*:1])cc2C1; X56 = CN1CCc2cc(-c3ccc(Cl)cc3C[C@@H](C(=O)[*:2])N(C)[*:1])ccc2C1; NMehhhLys(Me) = CN([C@@H](CCCCCCCN(C)[*:3])C(=O)[*:2])[*:1]; X96 = CN([C@@H](Cc1cc(Cl)cc2ccn(C)c12)C(=O)[*:2])[*:1]; X41 = CN([C@@H](Cc1cc(Cl)cc2c1ccn2C)C(=O)[*:2])[*:1]; cBuCO(3,3-F2-1-CF3) = O=C(C1(C(F)(F)F)CC(F)(F)C1)*; Pro(trans-4-F) = O=C(O)[C@@H]1C[C@@H](F)CN1; Gly(cPr) = N[C@H](C(=O)O)C1CC1; X102 = C[C@]1(C(=O)*)CC1(F)F; X9 = C[C@@]1(C(=O)*)CC1(F)F; X20 = O=C(C1(Cl)CC1)*
How the values were obtained:
[1] = target: T1, CyclinE1/CDK2 (Homo sapiens, UniProt P24864); experiment: Fluorescence Polarization (FP) competitive binding assay, Cyclin E1/Cdk2; conditions: 10 nM Cyclin E1/Cdk2, 2 nM FAM probe; average of 2-3 independent experiments; read-out: Cyclin E FP IC50;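 note: readings taken after two-hour equilibration at room temperature in HEPES buffer with NaCl, DTT, NP-40 and BSA, IC50 fitted from eight-concentration serial dilution series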
T1 construct: purchased Eurofins, discovery 14-475

[2] = test system: WI-38 cells; experiment: MTT proliferation assay, WI-38; assay type: cell-based; conditions: 3 days compound exposure, 1:3 serial dilution starting at 10 μM;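 note: Eight- or ten-point dilution series, with exposure length chosen to span about three to four cell doublings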
[3] = target: T2, CyclinB1/CDK1 (Homo sapiens, UniProt P14635); experiment: Fluorescence Polarization (FP) competitive binding assay, Cyclin B1/Cdk1; conditions: 10 nM Cyclin B1/Cdk1, 2 nM FAM probe; average of 2-3 independent experiments; read-out: Cyclin B FP IC50;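 note: fluorescence polarization read after equilibration at room temperature, with IC50 taken from serially diluted dose-response curves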
T2 construct: purchased Eurofins, discovery 14-450

[4] = test system: OVCAR3 cells; experiment: MTT proliferation assay, OVCAR3; assay type: cell-based; conditions: 5 days compound exposure, 1:3 serial dilution starting at 10 μM;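 note: compound given as an 8- or 10-point series, one day after plating, with exposure covering roughly 3-4 cell doublings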
[5] = target: T3, CyclinA2/CDK2 (Homo sapiens, UniProt P20248); experiment: Fluorescence Polarization (FP) competitive binding assay, Cyclin A2/Cdk2; conditions: 8 nM Cyclin A2/Cdk2, 2 nM FAM probe; average of 2-3 independent experiments; read-out: Cyclin A FP IC50;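 note: plates equilibrated two hours at room temperature before polarization reading, IC50 fitted from eight-concentration compound titration curves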
T3 construct: purchased CRELUX Protein Services

[6] = test system: NCI-H1048 cells; experiment: MTT proliferation assay, NCI-H1048; assay type: cell-based; conditions: 5 days compound exposure, 1:3 serial dilution starting at 10 μM;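 note: Dose-response in 96-well plates over 8 or 10 concentration points, with exposure spanning 3-4 cell doublings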

SMILES	IC50 [1]	GI50 [2]	IC50 [3]	GI50 [4]	IC50 [5]	GI50 [6]
CC(C)C[C@@H]1NC(=O)[C@@H](N(C)C(=O)[C@@H](NC(=O)[C@@H]2C[C@@H](F)CN2C(=O)C2(C(F)(F)F)CC(F)(F)C2)C2CC2)CCCCCCCN(C)C(=O)[C@H](Cc2cc(Cl)cc3ccn(C)c23)N(C)C1=O [Example 392, (2S,4R)—N—((S)-2-(((3S,6S,9S)-3-((5-chloro-1-methyl-1H-indol-7-yl)methyl)-6-isobutyl-1,4-dimethyl-2,5,8-trioxo-1,4,7-triazacyclohexadecan-9-yl)(methyl)amino)-1-cyclopropyl-2-oxoethyl)-1-(3,3-difluoro-1-(trifluoromethyl)cyclobutane-1-carbonyl)-4-fluoropyrrolidine-2-carboxamide] ({cBuCO(3,3-F2-1-CF3)}-[Pro(trans-4-F)][Gly(cPr)][NMehhhLys(Me)]L[X96]; lactam 3-C)	0.83 µM	14.7 µM	0.02 µM	0.17 µM	0.23 µM	0.17 µM
CC(C)C[C@@H]1NC(=O)[C@@H](N(C)C(=O)[C@@H](NC(=O)[C@@H]2C[C@@H](F)CN2C(=O)C2(C(F)(F)F)CC(F)(F)C2)C2CC2)CCCCCCCN(C)C(=O)[C@H](Cc2cc(Cl)cc3c2ccn3C)N(C)C1=O [Example 393] ({cBuCO(3,3-F2-1-CF3)}-[Pro(trans-4-F)][Gly(cPr)][NMehhhLys(Me)]L[X41]; lactam 3-C)	1.69 µM	13.7 µM	0.047 µM	1.31 µM	6.67 µM	1.79 µM
CC(C)C[C@@H]1NC(=O)C(N(C)C(=O)[C@@H](NC(=O)[C@@H]2C[C@@H](F)CN2C(=O)C2(C(F)(F)F)CC(F)(F)C2)C2CC2)C/C=C\CCCCN(C)C(=O)[C@H](Cc2cc(Cl)ccc2-c2ccc(N3CCN(C)CC3)cc2)N(C)C1=O (stereo partly drawn) [Example 397]	0.26 µM	3.56 µM	0.02 µM	0.01 µM	0.02 µM	0.01 µM
CC(C)C[C@@H]1NC(=O)[C@@H](N(C)C(=O)[C@@H](NC(=O)[C@@H]2C[C@@H](F)CN2C(=O)C2(Cl)CC2)C2CC2)CCCCCCCN(C)C(=O)[C@H](Cc2cc(Cl)ccc2-c2ccc(N3CCOCC3)cc2)N(C)C1=O [Example 398] (X20-[Pro(trans-4-F)][Gly(cPr)][NMehhhLys(Me)]L[NMePhe(2-(4-MorPh),5-Cl)]; lactam 3-C)	0.59 µM	3.64 µM	0.02 µM	0.19 µM	0.02 µM	0.14 µM
CC(C)C[C@@H]1NC(=O)[C@@H](N(C)C(=O)[C@@H](NC(=O)[C@@H]2C[C@@H](F)CN2C(=O)[C@]2(C)CC2(F)F)C2CC2)CCCCCCCN(C)C(=O)[C@H](Cc2cc(Cl)ccc2-c2ccc(N3CCOCC3)cc2)N(C)C1=O [Example 399] (X9-[Pro(trans-4-F)][Gly(cPr)][NMehhhLys(Me)]L[NMePhe(2-(4-MorPh),5-Cl)]; lactam 3-C)	3 µM	3.65 µM	0.02 µM	0.11 µM	0.07 µM	0.22 µM
CC(C)C[C@@H]1NC(=O)[C@@H](N(C)C(=O)[C@@H](NC(=O)[C@@H]2C[C@@H](F)CN2C(=O)[C@@]2(C)CC2(F)F)C2CC2)CCCCCCCN(C)C(=O)[C@H](Cc2cc(Cl)ccc2-c2ccc(N3CCOCC3)cc2)N(C)C1=O [Example 400] (X102-[Pro(trans-4-F)][Gly(cPr)][NMehhhLys(Me)]L[NMePhe(2-(4-MorPh),5-Cl)]; lactam 3-C)	0.49 µM	4.61 µM	0.02 µM	0.01 µM	0.02 µM	0.01 µM
CC(C)C[C@@H]1NC(=O)[C@@H](N(C)C(=O)[C@@H](NC(=O)[C@@H]2C[C@@H](F)CN2C(=O)C2(C(F)(F)F)CC(F)(F)C2)C2CC2)CCCCCCCN(C)C(=O)[C@H](Cc2cc(Cl)ccc2-c2ccc(C(C)N3CCOCC3)cc2)N(C)C1=O (stereo partly drawn) [Example 403] ({cBuCO(3,3-F2-1-CF3)}-[Pro(trans-4-F)][Gly(cPr)][NMehhhLys(Me)]L[X59]; lactam 3-C)	0.67 µM	3.99 µM	0.02 µM	0.01 µM	0.02 µM	0.01 µM
CCN1C(=O)[C@H](CC(C)C)NC(=O)[C@@H](N(C)C(=O)[C@@H](NC(=O)[C@@H]2C[C@@H](F)CN2C(=O)C2(C(F)(F)F)CC(F)(F)C2)C2CC2)CCCCCCCN(C)C(=O)[C@@H]1Cc1cc(Cl)ccc1-c1ccc(N2CCN(C)CC2)cc1 [Example 405] ({cBuCO(3,3-F2-1-CF3)}-[Pro(trans-4-F)][Gly(cPr)][NMehhhLys(Me)]L[X23]; lactam 3-C)	2.56 µM	2.16 µM	0.02 µM	0.05 µM	0.05 µM	0.04 µM
CC(C)C[C@@H]1NC(=O)[C@@H](N(C)C(=O)[C@@H](NC(=O)[C@@H]2C[C@@H](F)CN2C(=O)C2(C(F)(F)F)CC(F)(F)C2)C2CC2)CCCCCCCN(C)C(=O)[C@H](Cc2cc(Cl)ccc2-c2ccc3c(c2)CN(C)CC3)N(C)C1=O [Example 406] ({cBuCO(3,3-F2-1-CF3)}-[Pro(trans-4-F)][Gly(cPr)][NMehhhLys(Me)]L[X49]; lactam 3-C)	1.78 µM	3.35 µM	0.02 µM	0.04 µM	0.02 µM	0.02 µM
CC(C)C[C@@H]1NC(=O)[C@@H](N(C)C(=O)[C@@H](NC(=O)[C@@H]2C[C@@H](F)CN2C(=O)C2(C(F)(F)F)CC(F)(F)C2)C2CC2)CCCCCCCN(C)C(=O)[C@H](Cc2cc(Cl)ccc2-c2ccc3c(c2)CCN(C)C3)N(C)C1=O [Example 407] ({cBuCO(3,3-F2-1-CF3)}-[Pro(trans-4-F)][Gly(cPr)][NMehhhLys(Me)]L[X56]; lactam 3-C)	1.46 µM	3.01 µM	0.02 µM	0.02 µM	0.02 µM	0.01 µM
CC(C)C[C@@H]1NC(=O)[C@@H](N(C)C(=O)[C@@H](NC(=O)[C@@H]2C[C@@H](F)CN2C(=O)C2(C(F)(F)F)CC(F)(F)C2)C2CC2)CCCCCCCN(C)C(=O)[C@H](Cc2cc(Cl)ccc2-c2ccc(N3CCOCC3=O)cc2)N(C)C1=O [Example 408] ({cBuCO(3,3-F2-1-CF3)}-[Pro(trans-4-F)][Gly(cPr)][NMehhhLys(Me)]L[X32]; lactam 3-C)	0.51 µM	5.53 µM	0.02 µM	0.01 µM	0.02 µM	0.01 µM
CC(C)C[C@@H]1NC(=O)[C@@H](N(C)C(=O)[C@@H](NC(=O)[C@@H]2C[C@@H](F)CN2C(=O)C2(C(F)(F)F)CC(F)(F)C2)C2CC2)CCCCCCCN(C)C(=O)[C@H](Cc2cc(Cl)ccc2-c2ccc(N3CCN(C)[C@@H](C)C3)cc2)N(C)C1=O [Example 409] ({cBuCO(3,3-F2-1-CF3)}-[Pro(trans-4-F)][Gly(cPr)][NMehhhLys(Me)]L[X1]; lactam 3-C)	0.67 µM	2.46 µM	0.02 µM	0.01 µM	0.02 µM	0.01 µM
CC(C)C[C@@H]1NC(=O)[C@@H](N(C)C(=O)[C@@H](NC(=O)[C@@H]2C[C@@H](F)CN2C(=O)C2(C(F)(F)F)CC(F)(F)C2)C2CC2)CCCCCCCN(C)C(=O)[C@H](Cc2cc(Cl)ccc2-c2ccc(N3CCO[C@@H](CN(C)C)C3)cc2)N(C)C1=O [Example 410] ({cBuCO(3,3-F2-1-CF3)}-[Pro(trans-4-F)][Gly(cPr)][NMehhhLys(Me)]L[X48]; lactam 3-C)	0.65 µM	2 µM	0.02 µM	0.01 µM	0.02 µM	0.01 µM
CC(C)C[C@@H]1NC(=O)[C@@H](N(C)C(=O)[C@@H](NC(=O)[C@@H]2C[C@@H](F)CN2C(=O)C2(C(F)(F)F)CC(F)(F)C2)C2CC2)CCCCCCCN(C)C(=O)[C@H](Cc2cc(Cl)ccc2-c2ccc([C@@H]3CCCN(C)C3)cc2)N(C)C1=O [Example 411] ({cBuCO(3,3-F2-1-CF3)}-[Pro(trans-4-F)][Gly(cPr)][NMehhhLys(Me)]L[X70]; lactam 3-C)	0.76 µM	1.61 µM	0.02 µM	0.01 µM	0.02 µM	0.01 µM
